Source: patent US8101389B2, “Bacterial glutamine synthetases and methods of use” (Athenix Corp, priority 2006, dated 2012)

Assays:
Assay type in all cases: cell-based
[1] = test system: E. coli cells with AGS1 variant AGS1m2 (pAX3422), F81S, P185S, G218S, I303N, SEQ ID NO:6; test: growth of E. coli on herbicide plates, ags1m2; settings: 200 mM glufosinate
Method: Mutants of the bacterial glutamine synthetase gene ags1 (SEQ ID NO:1) were created by error-prone mutagenesis using the GENEMORPH® Random Mutagenesis kit, and also using oligo-directed mutagenesis as known in the art. However, many methods are available for creating libraries of mutants. The resulting mutants were cloned into a pUC19 vector, electroporated into either XL-1 or DH5 alpha E. coli cells, and selected for growth on M63+ agar media containing antibiotic and 2, 10, or 20 mM glufosinate. Twenty-two clones were identified as growing on 20 mM glufosinate, and picked for further analysis.
ags1m2 was mutagenized by error-prone mutagenesis using GENEMORPH® II Random Mutagenesis kit (Stratagene) according to manufacturer's instructions. Mutagenized PCR product was digested with Sac I and Hind III, and ligated into a pUC vector, similarly digested with Sac I and Hind III. Ligations were transformed into E. coli cells, and plated onto M63+ plates containing antibiotic, and 125 mM glufosinate. Clones growing on 125 mM glufosinate plates were retested on 200 mM glufosinate plates, and compared to similar platings of ags1m1 and ags1m2. […] The DNA sequence of the ags open reading frame in pAX3439 was sequenced, and the gene designated as ags1m16. The DNA sequence of ags1m16 is represented herein as SEQ ID NO:31, and the amino acid sequence is represented herein as SEQ ID NO:32. […]

[2] = test system: Serratia marcescens ATX 20345; test: growth of strain ATX 20345 in glufosinate; settings: minimal medium; growth above 50 mM was not tested
Method: A glufosinate resistant bacterial strain (ATX 20345) was isolated from a soil sample via a soil suspension by placing approximately 0.01 grams soil in 500 μl sterile water. The soil suspension was vortexed, and 20 μl was used to inoculate a 2.5 ml minimal medium culture supplemented with 5 mM glufosinate (Riedel-de Habël, available through Sigma-Aldrich, St. Louis, Mo.). The minimal medium contains the following ingredients (per 1 liter): 10 grams sucrose, 1 ml 0.8M MgSO4, 1 ml 0.1M CaCl2, 1 ml trace elements, 2.38 grams KH2PO4, 5.64 grams K2HPO4. The pH is adjusted to 7.0, and the solution is sterilized with a 0.2 μm filter. Trace elements consist of (per 100 ml) 0.1 g FeSO4.7H2O, 0.5 mg CuSO4.5H2O, 1.0 mg H3BO3, 1.0 mg MnSO4.5H2O, 7.0 mg ZnSO4.7H2O, 1.0 mg MoO3, 4.0 g KCl. No additional nitrogen source was provided in the medium. Cultures were grown at 21° C. on a rotary shaker for 3 days then transferred to fresh minimal medium containing 5 mM glufosinate and incubated at 21° C. After 2 days, the cultures were used to inoculate fresh minimal medium with 5 mM glufosinate. After 2 days, the cultures were plated onto Luria Bertani (LB) agar and then restruck for isolation. […] Colonies on LB agar are pinkish-red, raised, circular, and 1-2 mm in diameter. ATX20345 was typed by fatty acid analysis (as known in the art), and determined to be a strain of Serratia marcescens. […]

[3] = test system: E. coli cells with AGS1 variant AGS1m19, F81S, P185S, H212S, V214A, G218S, I303N, SEQ ID NO:38; test: growth of E. coli on glufosinate plates, ags1m19
Method: Clones expressing AGS1m17, AGS1m18, AGS1m19, or AGS1m20 were all found to be able to grow on plates containing 375 mM glufosinate, whereas no growth of clones expressing AGS1m16 was observed on plates containing 375 mM glufosinate.

In the case of `CP(=O)(O)CCC(N)C(=O)O` (stereo not drawn) [glufosinate], the “growth on 200 mM glufosinate plates” value [1] is reported as “did not grow”, the “glufosinate concentration through which ATX 20345 grows well” value [2] is reported as no less than 50 mM and the “growth on plates containing 375 mM glufosinate” value [3] is reported as “able to grow”.
